Where two headings read alike, the source gives them in different places.
Assays:
Type in all cases: biochemical
TYK2 = TYK2 (Homo sapiens (Human), UniProt P29597); assay: JAK Caliper Enzyme Assay at 1 mM ATP, TYK2
Method: (§1) Compounds of the invention were evaluated by in vitro methods to determine their respective ability to inhibit the JAK kinases (TYK2, JAK1, JAK2, JAK3).
(§2) The human JAK inhibitory activity was determined by using a microfluidic assay to monitor phosphorylation of a synthetic peptide by the recombinant human kinase domain of each of the four members of the JAK family, JAK1, JAK2, JAK3 and TYK2. […] Each assay condition was optimized for enzyme concentration and room temperature incubation time to obtain a conversion rate of 20% to 30% phosphorylated peptide product. Reactions were terminated by the addition of stop buffer containing EDTA. Utilizing the LabChip 3000 mobility shift technology (Caliper Life Science), each assay reaction was sampled to determine the level of phosphorylation. This technology is separation-based, allowing direct detection of fluorescently labeled substrates and products. Separations are controlled by a combination of vacuum pressure and electric field strength optimized for each peptide substrate.
(§3) JAK Caliper Enzyme Assay at 1mM ATP
(§4) Compounds were added to a 384-well plate.
(§5) The data was collected using the HTS Well Analyzer software from Caliper Life Sciences. The data output for data analysis is the percent product converted calculated on peak height (Equation 1). % product converted=100*((product)/(product+substrate)) Equation 1: […]
(§6) The percent effect at each compound concentration was calculated based on the positive and negative control well contained within each assay plate (Equation 2). […] The negative control wells contained DMSO alone (at the same concentration as the compound wells) that was used to set the baseline activity in the assay (i.e., uninhibited JAK1, JAK2, JAK3 or TYK2). % effect=100*([…](positive control-negative control)) Equation 2: […]
(§7) The percent effect was plotted against the compound concentration compound.

JAK1 = JAK1 (Homo sapiens (Human), UniProt P23458); assay: JAK Caliper Enzyme Assay at 1 mM ATP, JAK1
Chain of JAK1 (P23458 875-1153): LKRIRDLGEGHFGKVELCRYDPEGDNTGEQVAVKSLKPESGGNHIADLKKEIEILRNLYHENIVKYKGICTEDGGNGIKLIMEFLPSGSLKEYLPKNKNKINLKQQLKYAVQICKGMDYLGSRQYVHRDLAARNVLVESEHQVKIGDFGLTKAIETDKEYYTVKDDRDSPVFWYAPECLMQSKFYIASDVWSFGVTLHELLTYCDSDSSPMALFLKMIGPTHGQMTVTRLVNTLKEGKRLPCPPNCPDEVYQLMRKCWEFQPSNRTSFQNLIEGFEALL
Method: as §1, §2, §3, §4, §5, §6, §7

JAK3 = JAK3 (Homo sapiens (Human), UniProt P52333); assay: JAK Caliper Enzyme Assay at 1 mM ATP, JAK3
Chain of JAK3 (P52333 822-1111): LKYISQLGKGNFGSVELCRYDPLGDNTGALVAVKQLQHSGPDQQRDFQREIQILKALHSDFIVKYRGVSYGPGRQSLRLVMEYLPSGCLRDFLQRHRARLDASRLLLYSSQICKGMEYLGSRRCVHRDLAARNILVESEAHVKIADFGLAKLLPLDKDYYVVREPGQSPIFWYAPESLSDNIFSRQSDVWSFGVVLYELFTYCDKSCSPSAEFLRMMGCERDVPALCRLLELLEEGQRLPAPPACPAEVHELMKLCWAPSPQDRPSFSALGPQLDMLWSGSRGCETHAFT
Method: as §1, §2, §3, §4, §5, §6, §7

JAK2 = JAK2 (Homo sapiens (Human), UniProt O60674); assay: JAK Caliper Enzyme Assay at 1 mM ATP, JAK2; settings: JAK Caliper enzyme assay
Chain of JAK2 (O60674 849-1124): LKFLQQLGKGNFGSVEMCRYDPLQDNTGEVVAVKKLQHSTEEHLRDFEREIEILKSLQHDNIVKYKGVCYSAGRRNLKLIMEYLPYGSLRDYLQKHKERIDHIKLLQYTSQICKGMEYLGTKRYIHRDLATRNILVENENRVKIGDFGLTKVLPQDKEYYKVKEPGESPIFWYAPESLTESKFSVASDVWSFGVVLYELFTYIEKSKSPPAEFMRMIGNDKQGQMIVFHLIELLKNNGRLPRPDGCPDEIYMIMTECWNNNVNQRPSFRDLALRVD
Method: as §1, §2, §3, §4, §5, §6, §7

Chain of TYK2 (P29597 897-1176): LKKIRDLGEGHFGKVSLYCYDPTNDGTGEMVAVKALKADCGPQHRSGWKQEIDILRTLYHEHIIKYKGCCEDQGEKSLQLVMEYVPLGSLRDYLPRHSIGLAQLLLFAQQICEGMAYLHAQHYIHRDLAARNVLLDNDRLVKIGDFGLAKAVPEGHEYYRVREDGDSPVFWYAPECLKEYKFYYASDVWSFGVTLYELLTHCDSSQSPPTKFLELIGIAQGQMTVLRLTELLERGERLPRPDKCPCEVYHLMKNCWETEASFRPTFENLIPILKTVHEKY

| SMILES | IC50 (TYK2) [nM] | IC50 (JAK1) [nM] | IC50 (JAK3) [nM] | IC50 (TYK2; JAK Caliper enzyme assay) [nM] | IC50 (JAK1; JAK Caliper enzyme assay) [nM] | IC50 (JAK3; JAK Caliper enzyme assay) [nM] | IC50 (JAK2) [nM] |
| --- | --- | --- | --- | --- | --- | --- | --- |
| Cn1cnc(-c2cc3ncccc3c(-c3ccn(C4(CC#N)CN(CC(F)(F)F)C4)n3)n2)c1 [Example 149, [3-{3-[7-(1-methyl-1H-imidazol-4-yl)-1,6-naphthyridin-5-yl]-1H-pyrazol-1-yl}-1-(2,2,2-trifluoroethyl)azetidin-3-yl]acetonitrile] | 125 | > 10000 | > 10000 | – | – | – | – |
| N#CCC1(n2ccc(-c3nc(-c4cnn(C5CCCCO5)n4)cc4ncccc34)n2)CN(CC(F)(F)F)C1 (stereo not drawn) [Example 155, [3-(3-{7-[2-(tetrahydro-2H-pyran-2-yl)-2H-1,2,3-triazol-4-yl]-1,6-naphthyridin-5-yl}-1H-pyrazol-1-yl)-1-(2,2,2-trifluoroethyl)azetidin-3-yl]acetonitrile] | 312 | 6460 | > 10000 | – | – | – | – |
| CS(=O)(=O)N1CC(CC#N)(n2ccc(-c3nc(-c4cccc(O)n4)cc4ncccc34)n2)C1 [Example 180, [3-{3-[7-(6-hydroxypyridin-2-yl)-1,6-naphthyridin-5-yl]-1H-pyrazol-1-yl}-1-(methylsulfonyl)azetidin-3-yl]acetonitrile] | 42 | 3740 | > 10000 | – | – | – | – |
| N#CC[C@]1(n2ccc(-c3nc(-c4ccc(N)c(C(N)=O)n4)cc4ncccc34)n2)C[C@H](C#N)C1 [Example 224, 3-amino-6-(5-{1-[cis-3-cyano-1-(cyanomethyl)cyclobutyl]-1H-pyrazol-3-yl}-1,6-naphthyridin-7-yl)pyridine-2-carboxamide] | 45 | 1940 | > 10000 | – | – | – | – |
| N#CC[C@]1(n2ccc(-c3nc(-c4ccc(N)c(C(N)=O)n4)cc4ncccc34)n2)C[C@@H](C#N)C1 [Example 225, 3-amino-6-(5-{1-[trans-3-cyano-1-(cyanomethyl)cyclobutyl]-1H-pyrazol-3-yl}-1,6-naphthyridin-7-yl)pyridine-2-carboxamide] | 9 | 215 | > 10000 | – | – | – | – |
| N#CCC1(n2ccc(-c3nc(-c4ccnnc4)cc4ncccc34)n2)CN(CC(F)(F)F)C1 [Example 233, [3-{3-[7-(pyridazin-4-yl)-1,6-naphthyridin-5-yl]-1H-pyrazol-1-yl}-1-(2,2,2-trifluoroethyl)azetidin-3-yl]acetonitrile] | 347 | 9580 | > 10000 | – | – | – | – |
| CS(=O)(=O)N1CC(CC#N)(n2ncc(-c3cc(-c4cc[nH]n4)cc4ncccc34)n2)C1 [Example 298, [1-(methylsulfonyl)-3-{4-[7-(1H-pyrazol-3-yl)quinolin-5-yl]-2H-1,2,3-triazol-2-yl}azetidin-3-yl]acetonitrile] | 23 | 594 | > 10000 | – | – | – | – |
| N#CCC1(n2ncc(-c3cc(-c4cc[nH]n4)cc4ncccc34)n2)CN(S(N)(=O)=O)C1 [Example 300, 3-(cyanomethyl)-3-{4-[7-(1H-pyrazol-3-yl)quinolin-5-yl]-2H-1,2,3-triazol-2-yl}azetidine-1-sulfonamide] | 16 | 291 | 3320 | – | – | – | – |
| Cn1cc(-c2cc(-c3cnn([C@]4(CC#N)C[C@H](C#N)C4)n3)c3cccnc3c2)c(N)n1 [Example 332, cis-3-{4-[7-(3-amino-1-methyl-1H-pyrazol-4-yl)quinolin-5-yl]-2H-1,2,3-triazol-2-yl}-3-(cyanomethyl)cyclobutanecarbonitrile] | 16 | 1690 | > 10000 | – | – | – | – |
| N#CC[C@]1(n2ncc(-c3cc(-c4cccc(C(N)=O)n4)cc4ncccc34)n2)C[C@H](C#N)C1 [Example 349, 6-(5-{2-[trans-3-cyano-1-(cyanomethyl)cyclobutyl]-2H-1,2,3-triazol-4-yl}quinolin-7-yl)pyridine-2-carboxamide] | 17 | 738 | > 10000 | – | – | – | – |
| N#CC[C@]1(n2ncc(-c3cc(-c4cccc(C(N)=O)n4)cc4ncccc34)n2)C[C@H](C#N)C1 [Example 350, 6-(5-{2-[cis-3-cyano-1-(cyanomethyl)cyclobutyl]-2H-1,2,3-triazol-4-yl}quinolin-7-yl)pyridine-2-carboxamide] | 7 | 97 | 2470 | – | – | – | – |
| N#CC[C@]1(n2ncc(-c3cc(-c4cncc(N)n4)cc4ncccc34)n2)C[C@H](C#N)C1 [Example 397, trans-3-{4-[7-(6-aminopyrazin-2-yl)quinolin-5-yl]-2H-1,2,3-triazol-2-yl}-3-(cyanomethyl)cyclobutanecarbonitrile] | – | – | – | – | > 10000 | > 10000 | 8950 |
| CS(=O)(=O)N1CC(CC#N)(n2ncc(-c3cc(-c4c[nH]c5nccc-5c4)cc4ncccc34)n2)C1 [Example 415, [1-(methylsulfonyl)-3-{4-[7-(7H-pyrrolo[2,3-b]pyridin-5-yl)quinolin-5-yl]-2H-1,2,3-triazol-2-yl}azetidin-3-yl]acetonitrile] | – | – | – | 1090 | > 10000 | > 10000 | – |
| COc1nc(-c2cc(-c3cnn([C@]4(CC#N)C[C@H](C#N)C4)c3)n3ccnc3c2)ccc1N [Example 471, cis-3-{4-[7-(5-amino-6-methoxypyridin-2-yl)imidazo[1,2-a]pyridin-5-yl]-1H-pyrazol-1-yl}-3-(cyanomethyl)cyclobutanecarbonitrile] | – | – | – | 33 | 631 | > 10000 | – |
| Cn1cc(-c2cc(-c3ccn(C4(CC#N)CN(CC(F)(F)F)C4)n3)n3ccnc3c2)cn1 [Example 472, [3-{3-[7-(1-methyl-1H-pyrazol-4-yl)imidazo[1,2-a]pyridin-5-yl]-1H-pyrazol-1-yl}-1-(2,2,2-trifluoroethyl)azetidin-3-yl]acetonitrile] | – | – | – | 5670 | > 10000 | > 10000 | – |

The next lines start with the values.

| IC50 (TYK2) [nM] | IC50 (JAK1) [nM] | IC50 (JAK3) [nM] | IC50 (TYK2; JAK Caliper enzyme assay) [nM] | IC50 (JAK1; JAK Caliper enzyme assay) [nM] | IC50 (JAK3; JAK Caliper enzyme assay) [nM] | IC50 (JAK2) [nM] | SMILES |
| --- | --- | --- | --- | --- | --- | --- | --- |
| 66 | 2730 | > 10000 | – | – | – | – | N#CCC1(n2ccc(-c3nc(-c4cccnc4)cc4ncccc34)n2)CN(CC(F)(F)F)C1 [Example 171, [3-{3-[7-(pyridin-3-yl)-1,6-naphthyridin-5-yl]-1H-pyrazol-1-yl}-1-(2,2,2-trifluoroethyl)azetidin-3-yl]acetonitrile] |
| 74 | 4860 | > 10000 | – | – | – | – | CS(=O)(=O)N1CC(CC#N)(n2ccc(-c3nc(-c4ccnc(O)c4)cc4ncccc34)n2)C1 [Example 186, [3-{3-[7-(2-hydroxypyridin-4-yl)-1,6-naphthyridin-5-yl]-1H-pyrazol-1-yl}-1-(methylsulfonyl)azetidin-3-yl]acetonitrile] |
| 15 | 365 | > 10000 | – | – | – | – | COc1nc(-c2cc3ncccc3c(-c3ccn([C@]4(CC#N)C[C@H](C#N)C4)n3)n2)ccc1N [Example 223, cis-3-{3-[7-(5-amino-6-methoxypyridin-2-yl)-1,6-naphthyridin-5-yl]-1H-pyrazol-1-yl}-3-(cyanomethyl)cyclobutanecarbonitrile] |
| 11 | 12 | 454 | – | – | – | – | CS(=O)(=O)Nc1ccc(-c2cc3ncccc3c(-c3ccn([C@]4(CC#N)C[C@@H](C#N)C4)n3)n2)cc1 [Example 256, N-[4-(5-{1-[cis-3-cyano-1-(cyanomethyl)cyclobutyl]-1H-pyrazol-3-yl}-1,6-naphthyridin-7-yl)phenyl]methanesulfonamide] |
| 20 | 110 | 6420 | – | – | – | – | CS(=O)(=O)Nc1ccc(-c2cc3ncccc3c(-c3ccn([C@]4(CC#N)C[C@H](C#N)C4)n3)n2)cc1 [Example 257, N-[4-(5-{1-[trans-3-cyano-1-(cyanomethyl)cyclobutyl]-1H-pyrazol-3-yl}-1,6-naphthyridin-7-yl)phenyl]methanesulfonamide] |
| 1290 | > 10000 | > 10000 | – | – | – | – | Cn1ncc(-c2cc(-c3cnn([C@]4(CC#N)C[C@@H](C#N)C4)n3)c3cccnc3c2)c1CO [Example 328, trans-3-(cyanomethyl)-3-(4-{7-[5-(hydroxymethyl)-1-methyl-1H-pyrazol-4-yl]quinolin-5-yl}-2H-1,2,3-triazol-2-yl)cyclobutanecarbonitrile] |
| 31 | 5870 | > 10000 | – | – | – | – | Cn1cc(-c2cc(-c3cnn([C@]4(CC#N)C[C@@H](C#N)C4)n3)c3cccnc3c2)c(N)n1 [Example 333, trans-3-{4-[7-(3-amino-1-methyl-1H-pyrazol-4-yl)quinolin-5-yl]-2H-1,2,3-triazol-2-yl}-3-(cyanomethyl)cyclobutanecarbonitrile] |
| – | – | – | 1030 | 8560 | > 10000 | – | N#CC[C@]1(n2ncc(-c3cc(-c4cnc(N)nc4)cc4ncccc34)n2)C[C@@H](C#N)C1 [Example 394, cis-3-{4-[7-(2-aminopyrimidin-5-yl)quinolin-5-yl]-2H-1,2,3-triazol-2-yl}-3-(cyanomethyl)cyclobutanecarbonitrile] |

— patent US11254668B2, “Pyrazolo[1,5-A]pyrazin-4-yl and related derivatives” (Pfizer Inc., priority 2017, dated 2022)
